Source: patent US10105357B2, “Indication of antibiotic drugs for preparation of cancer inhibition pharmaceutical composition” (LAUNX BIOMEDICAL CO., LTD., priority 2014, dated 2018)
Counter-ions that a name gives are not always drawn. Like-named read-outs stand apart in the source and are kept apart here.

Columns and labels:
[1] = tested on: 786-O (Renal adenocarcinoma); test: Cell viability analysis, renal cancer 786-O; type: cell-based, human; details: Homo sapiens, 786-0, 72 h, read-out: The results of antibiotic drug inhibiting cancer cell lines (cell viability analysis), 786-O
[2] = tested on: MCF7 (Mammary Gland, Adenocarcinoma); test: Cell viability analysis, breast cancer MCF7; type: cell-based, human; details: Homo sapiens, MCF7, 72 h
[3] = tested on: HCT116 (p53+) (Colorectal Carcinoma); test: cells; details: Homo sapiens, HCT-116, 72 h, read-out: cell viability (survival rate), HCT116
[4] = read-out: The results of antibiotic drug inhibiting cancer cell lines (cell viability analysis), MCF-7, MCF-7, repeated experiment
[5] = read-out: cell viability (survival rate), MCF7, drug 10 μM, 72 hours, WST-1, OD450 nm
[6] = MCF-7, repeated experiment, read-out: The results of antibiotic drug inhibiting cancer cell lines (cell viability analysis), MCF-7
[7] = drug 10 μM, 72 hours, WST-1, OD450 nm, read-out: cell viability (survival rate), MCF7

| Structure (SMILES) | viability at 10 µM [1] [%] | viability at 10 µM [2, 4] [%] | viability at 10 µM [2, 5] [%] | viability at 10 µM ([1]; 786-O, repeated experiment) [%] | viability at 10 µM [2, 6] [%] | viability at 10 µM [2, 7] [%] | viability at 10 µM [3] [%] |
| --- | --- | --- | --- | --- | --- | --- | --- |
| CC(C)(C)C(=O)OCOP(=O)(COCCn1cnc2c(N)ncnc21)OCOC(=O)C(C)(C)C [Adefovir Dipivoxil (Preveon, Hepsera), Adefovir Dipivoxil] | 25.9 | 75.5 | 56.7 |  |  |  |  |
| CC(NC(C)(C)C)C(=O)c1cccc(Cl)c1 (stereo not drawn) [Amfebutamone (Bupropion), Amfebutamone] | 103 | 69 | 64.7 |  |  |  |  |
| CN(C)CCC=C1c2ccccc2CCc2ccccc21 [Amitriptyline HCl] |  |  |  | 85.5 | 67.7 | 64.8 |  |
| Cc1ccc2c(Cl)cc(Cl)c(O)c2n1 [Chlorquinaldol] |  |  |  | 41.8 | 30.2 | 47.8 |  |
| CN(C)[C@@H]1C(O)=C(C(N)=O)C(=O)[C@@]2(O)C(O)=C3C(=O)c4c(O)ccc(Cl)c4[C@@](C)(O)[C@H]3C[C@@H]12 [Chlortetracycline HCl] | 91.4 | 93.4 | 32.2 |  |  |  |  |
| CC(C)/N=c1\cc2n(-c3ccc(Cl)cc3)c3ccccc3nc-2cc1Nc1ccc(Cl)cc1 [Clofazimine] |  |  |  | 82.5 | 74.2 | 51.2 |  |
| CC(C)(C)CC(C)(C)c1ccc(O)c(Cc2ccc(Cl)cc2Cl)c1 [Clofoctol] |  |  |  | 105 | 83 | 48.1 | 61 |
| CCc1cc2c(cc1CC)CC(NC[C@H](O)c1ccc(O)c3[nH]c(=O)ccc13)C2 [Indacaterol Maleate] |  |  |  | 82.6 | 72.5 | 68.7 |  |
| Cc1ncc([N+](=O)[O-])n1CCO [Metronidazole (Flagyl), Metronidazole] | 92 | 77.3 | 43.8 |  |  |  |  |
| Clc1ccc(COC(Cn2ccnc2)c2ccc(Cl)cc2Cl)c(Cl)c1 (stereo not drawn) [Miconazole nitrate] | 75.2 | 95.6 | 50.7 |  |  |  |  |
| COc1c(C)c2c(c(O)c1C/C=C(\C)CCC(=O)O)C(=O)OC2 [Mycophenolic (Mycophenolate), Mycophenolic] |  |  |  | 24.7 | 70.3 | 120 |  |
| NC(=O)N/N=C/c1ccc([N+](=O)[O-])o1 [Nitrofurazone (Nitrofural), Nitrofurazone] |  |  |  | 90 | 107 | 35.3 |  |
| CC[C@@H]([C@H](C)O)n1ncn(-c2ccc(N3CCN(c4ccc(OC[C@@H]5CO[C@@](Cn6cncn6)(c6ccc(F)cc6F)C5)cc4)CC3)cc2)c1=O [Posaconazole] |  |  |  | 18.1 | 48 | 63.6 |  |
| COc1cc(NC(C)CCCN)c2ncccc2c1 (stereo not drawn) [Primaquine Diphosphate] | 81.5 | 50.7 | 36.7 |  |  |  | 69.5 |
| CN(C)[C@@H]1C(O)=C(C(N)=O)C(=O)[C@@]2(O)C(O)=C3C(=O)c4c(O)cccc4[C@@](C)(O)[C@H]3C[C@@H]12 [Tetracycline HCl] | 99.9 | 93.1 | 75.9 |  |  |  |  |
| CCCCCCCCCCCCCCCC[N+](C)(C)CCN(Cc1ccc(OC)cc1)c1ncccn1 [Thonzonium Bromide] |  |  |  | 16.8 | 41 | 47 | 32.9 |
| Clc1ccc(C(Cn2ccnc2)OCc2ccsc2Cl)c(Cl)c1 (stereo not drawn) [Tioconazole] | 75.6 | 97.8 | 48 |  |  |  |  |
